Measured values as given in publication PMC3466466, “Taltirelin is a superagonist at the human thyrotropin-releasing hormone receptor” (Frontiers in Endocrinology, 2012).

How the values were obtained:
[1] = target: T1, TRH-R (human TRH receptor) (Homo sapiens, UniProt P34981); test: intracellular Ca2+ release, calcium […] dye, FLIPR; assay type: cell-based; conditions: read-out: EC50 for Ca signaling
T1 construct: gene TRHR; full-length human cDNA subcloned into pcDNA3.1(+)/hygromycin; stably expressed in HEK-EM 293 cells, 16,000 receptors/cell
T1 sequence (P34981 1-398): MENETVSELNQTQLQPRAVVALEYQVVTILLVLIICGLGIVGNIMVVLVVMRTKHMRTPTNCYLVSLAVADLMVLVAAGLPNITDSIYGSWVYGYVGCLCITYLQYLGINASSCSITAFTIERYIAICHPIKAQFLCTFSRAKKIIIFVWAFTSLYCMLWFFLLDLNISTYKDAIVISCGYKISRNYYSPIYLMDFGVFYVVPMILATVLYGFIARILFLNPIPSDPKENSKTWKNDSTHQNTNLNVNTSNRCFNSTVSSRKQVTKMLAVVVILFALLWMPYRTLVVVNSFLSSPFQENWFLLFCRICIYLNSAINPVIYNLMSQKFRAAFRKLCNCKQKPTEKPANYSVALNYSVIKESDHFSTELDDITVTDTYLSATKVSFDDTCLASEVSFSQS

[2] = target: T1, TRH-R (human TRH receptor); test: [3H]MeTRH competition binding, intact HEK-EM […] cells; assay type: cell-based

Structure (SMILES): CN1C(=O)C[C@@H](C(=O)N[C@@H](Cc2c[nH]cn2)C(=O)N2CCC[C@H]2C(N)=O)NC1=O [TAL, N-[[(4S)-Hexahydro-1-methyl-2,6-dioxo-4-pyrimidinyl]carbonyl]-L-histidyl-L-prolinamide]
- EC50 [1]: 0.036 µM
- IC50 [2]: 0.91 µM
